Measured values taken from patent US20240196889A1, “USE OF DI- AND TRI[…] ACIDS IN THE PREVENTION OF BIOFILM FORMATION” (priority 2020, published 2024).
Converted amounts (≈) assume the structure as drawn.

How the values were obtained:
Salmonella = test: Minimal inhibitory concentration (MIC) assay; assay type: cell-based, Salmonella enterica serovar Typhimurium; conditions: TSB 1/20, 24 h, 25° C., same conditions as the biofilm assay
Method: MIC values were determined in a 96-well plate. Two-fold serial dilutions of agaric acid or DMSO were prepared in 100 μl of TSB 1/20 and 100 μL of the inoculum diluted 1/100 in TSB 1/20 was added. The plate was covered with a Breathable Sealing Membrane and a lid and incubated for 24 h at 25° C., shaking at 200 rpm.

[1] = test system: Salmonella genes related to biofilm formation; test: Microtiter-plate-based GFP promoter fusion assay; assay type: cell-based, Salmonella Typhimurium ATCC 14028; conditions: 100 μM
Method: To unravel the mechanism by which agaric acid inhibits biofilm formation, an in house developed reporter GFP-promoter fusion library was screened. This library contains reporters for 130 Salmonella genes related to biofilm formation, including genes regulating matrix production, fimbriae and flagella synthesis, quorum sensing and c-di-GMP regulation (Table 2) [Robijns et al. (2014). Biofouling 30, 605-625.]. A time-lapse of the first 24 h of biofilm formation in microtiter plates was performed to identify genes that are differentially transcribed in the presence of 100 μM agaric acid. As these reporter fusions express the stable GFPmut3 variant as a fluorophore, the measured fluorescence values are the accumulation of fluorescence over time [Robijns et al. (2014). Biofouling 30, 605-625](FIG. 2).
1.5 μl of the reporter fusions' ONCs were transferred in three repeats to black polystyrene, clear-bottomed microtiter plates (Greiner bio-one 655096) containing 200 μl of 1/20 TSB with either a final concentration of 100 μM agaric or the corresponding amount of DMSO. Subsequently, the microtiter plates were incubated statically, at 25° C. for 24 h. Every 3 h, the fluorescence (excitation 488 nm, emission 511 nm) and absorbance at 600 nm (OD600) were measured using a Synergy MX multimode reader. For data analysis, blank measurements were subtracted from both the fluorescence (using a promoterless pFPV25 vector as control) and OD600. The ratio between the different OD600 values of the strains/conditions was used to normalize any effects on the fluorescence caused by growth differences in the bacteria. Significant differences in the level of fluorescence between treatment and control were determined using a two-tailed Student t-test (P<0.05).

[2] = test system: Salmonella Typhimurium ATCC 14028; test: Staining of flagella; assay type: cell-based, Salmonella enterica serovar Typhimurium; conditions: 100 μM vs DMSO, 24 h
Method: An ONC of Salmonella Typhimurium ATCC 14028 was diluted 1/100 in 5 ml TSB 1/20, with either a final concentration of 100 μM agaric or the corresponding amount of DMSO as a control. The planktonic cultures were incubated for 24 h at 25° C., shaking at 200 rpm. The flagella were stained according to Kearns and Losick (2003) Molecular microbiology 49, 581-590. Briefly, the stain consist of ten parts mordant (2 g tannic acid, 10 ml 5% phenol, 10 ml saturated aqueous AIK(SO4)2) mixed with one part stain (12% crystal violet in ethanol). 3 μl of sample was applied to a microscopic slide and covered with a 22 mm×40 mm coverslip. After placing the slide vertically, 10 μl was applied to the top edge of the coverslip in order to stain the sample due to capillary forces. Samples were visualized with phase contrast using a Zeiss Axio Imager Z1 microscope with an EC Plan Neofluar (×100 magnification/1.3 numerical aperture) objective.

P. aeruginosa PA14 = test: Antibiofilm assay (Calgary biofilm device); assay type: cell-based, Pseudomonas aeruginosa
Method: (§1) A static peg assay for the prevention of bacterial biofilm formation was used as described previously. A lid carrying 96 polystyrene pegs was fitted into a microtiter plate with a peg hanging into each well. Two-fold serial dilutions of the compounds in 100 μl liquid broth per well were prepared in the microtiter plate. Subsequently, an overnight culture was diluted 1:100 into the respective liquid broth, and 100 μl (˜10^6 cells) was added to each well of the microtiter plate, resulting in a total amount of 200 μl medium per well. After placing the lid on the microtiter plate, samples containing Salmonella, Pseudomonas or E. coli were incubated statically in TSB 1/20 for 48 h at 25° C., whereas S. aureus was incubated in undiluted TSB at 37° C. for 48 h. After incubation, the lid was removed from the microtiter plate and liquid culture was transferred to a new microtiter plate prior to determining the prior to determining the planktonic growth in each well via OD600 measurements using a Synergy MX multimode reader (Biotek, Winooski, VT). The pegs were washed once in 200 μl PBS and the remaining attached bacteria were stained for 30 min with 200 μl 0.1% crystal violet in an isopropanol-methanol-PBS solution (1:1:18). Excess stain was washed off by placing the pegs in a 96-well plate filled with 200 μl distilled water per well. Afterwards, the pegs were air dried for 30 min and the dye bound to the adherent cells dissolved into 200 μl 30% glacial acetic acid. The OD570 of each well was measured using a Synergy MX multimode reader. Data was analysed using the GraphPad Prism 6 software.

S. aureus SH1000 = test: Antibiofilm assay (Calgary biofilm device); assay type: cell-based, Staphylococcus aureus
Method: as §1

[3] = test system: S. Typhimurium SL1344 (S1) in mixed-species biofilm with S2 and E1; test: Mixed-species tolerance assay (CFU); assay type: cell-based, Salmonella Typhimurium and E. coli
Method: The monospecies and mixed-species biofilms were grown on petri dishes for 48 h at 25° C. as described above. The medium was then replaced by 5 ml PBS with either 0.25% H2O2 or 1 μM ciprofloxacin and the biofilms were incubated for an additional 1 h at 25° C. Subsequently, the biofilms were scraped off and plated out on solid LB agar plates for CFU determination. To differentiate between the strains, S1 was labelled with constitutive gfpmut3 on a plasmid, while S2 and E1 were labelled with plasmid-encoded constitutive dsRed.T4. Differences in colony shape and size allowed differentiation between S2 and E1 during CFU counting.

[4] = comparison of effective concentrations

Structure (SMILES): CCCCCCCCCCCCCCCCC(C(=O)O)C(O)(CC(=O)O)C(=O)O (stereo not drawn) [Agaric acid, 2-hydroxynonadecane-1,2,3-tricarboxylic acid]
- MIC (Salmonella): 8 mM (≈ 3330 µg/mL)
- transcription of class III flagellar genes flgM, flgK and motA [1]: significantly reduced
- transcription of tdcA, flgB, fljB and fliC [1]: not decreased at consecutive points
- transcription of flhDC ([1]; between 9 h and 15 h): increased compared to the control
- transcription of csgB and adrA ([1]; first 24 h): not influenced
- transcription of central biofilm regulatory genes CsgD and RpoS ([1]; first 24 h of biofilm formation): not downregulated
- transcription of flagellar sigma factor fliA ([1]; from 12 h onwards): significantly inhibited
- flagellar appearance [2]: no differences in flagellar appearance
- planktonic growth (OD600) (P. aeruginosa PA14): inhibits
- biofilm inhibition versus planktonic growth inhibition (P. aeruginosa PA14; [4]): planktonic growth is reduced at lower concentrations than biofilm inhibition
- biofilm formation (P. aeruginosa PA14; crystal violet staining): inhibits
- biofilm inhibition versus planktonic growth inhibition at high concentrations (P. aeruginosa PA14; high concentrations of agaric acid): biofilm formation is inhibited to a higher extent than planktonic growth
- planktonic growth (OD600) (S. aureus SH1000): inhibits
- biofilm inhibition versus bactericidal effect (S. aureus SH1000; [4]): biofilm inhibition occurred already at a lower concentration than the bactericidal effect
- biofilm formation (S. aureus SH1000; crystal violet staining, undiluted TSB, 37° C., 48 h): inhibits
- enhanced tolerance of S1 in mixed-species conditions ([3]; 0.25% H2O2 or 1 μM ciprofloxacin, 1 h): completely abolished the enhanced tolerance of S1
- number of S1 cells surviving antimicrobial treatment in mixed-species communities ([3]; in presence of agaric acid): lowest number of S1 cells surviving antimicrobial treatment
- tolerance of remaining biofilm cells towards ciprofloxacin and H2O2 ([3]; preventive treatment, 0.25% H2O2 or 1 μM ciprofloxacin, 1 h): reduced the tolerance of the remaining biofilm cells
